Read-outs that look alike come from different tables or passages of the source.
Tests used:
Experiment in all cases: biochemical
Format in all cases: biochemical
[1] = molecular target: panel of 391 kinases (Homo sapiens, UniProt Q9HBY8); conditions: SGK2, MK-28 1 µM, ATP 1 µM
[2] = molecular target: panel of 391 kinases (Homo sapiens, UniProt Q6PHR2); conditions: ULK3, MK-28 1 µM, ATP 1 µM
[3] = molecular target: panel of 391 kinases (Homo sapiens, UniProt Q8N568); conditions: DCAMKL2, MK-28 1 µM, ATP 1 µM
[4] = molecular target: panel of 391 kinases (Homo sapiens, UniProt P45983); conditions: JNK1, MK-28 1 µM, ATP 1 µM
[5] = molecular target: panel of 391 kinases (Homo sapiens, UniProt O14578); conditions: STK21/CIT, MK-28 1 µM, ATP 1 µM
[6] = molecular target: panel of 391 kinases (Homo sapiens, UniProt Q13873); conditions: BMPR2, MK-28 1 µM, ATP 1 µM
[7] = molecular target: panel of 391 kinases (Homo sapiens, UniProt Q9BXA6); conditions: SSTK/TSSK6, MK-28 1 µM, ATP 1 µM
[8] = molecular target: panel of 391 kinases (Homo sapiens, UniProt Q6XUX3); conditions: RIPK5, MK-28 1 µM, ATP 1 µM
[9] = molecular target: panel of 391 kinases (Homo sapiens, UniProt O43318); conditions: TAK1, MK-28 1 µM, ATP 1 µM
[10] = molecular target: panel of 391 kinases (Homo sapiens, UniProt Q96S53); conditions: TESK2, MK-28 1 µM, ATP 1 µM
[11] = molecular target: panel of 391 kinases (Homo sapiens, UniProt Q9BQI3); conditions: kinase EIF2AK1, compound at 1 µM, single dose in duplicates, 1 µM ATP
[12] = molecular target: panel of 391 kinases (Homo sapiens, UniProt Q13237); conditions: PKG2/PRKG2, MK-28 1 µM, ATP 1 µM
[13] = molecular target: panel of 391 kinases (Homo sapiens, UniProt O00506); conditions: STK25/YSK1, MK-28 1 µM, ATP 1 µM
[14] = molecular target: panel of 391 kinases (Homo sapiens, UniProt P27448); conditions: MARK3, MK-28 1 µM, ATP 1 µM
[15] = molecular target: panel of 391 kinases (Homo sapiens, UniProt Q8IVH8); conditions: GLK/MAP4K3, MK-28 1 µM, ATP 1 µM
[16] = molecular target: panel of 391 kinases (Homo sapiens, UniProt P29323); conditions: EPHB2, MK-28 1 µM, ATP 1 µM
[17] = molecular target: panel of 391 kinases (Homo sapiens, UniProt Q96L34); conditions: MARK4, MK-28 1 µM, ATP 1 µM
[18] = molecular target: panel of 391 kinases (Homo sapiens, UniProt P54646); conditions: compound at 1 µM, single dose in duplicates, 1 µM ATP; for remaining activity at 1 µM: read-out: % Enzyme Activity (relative to DMSO controls)
[19] = molecular target: panel of 391 kinases (Homo sapiens, UniProt P00533); conditions: EGFR, MK-28 1 µM, ATP 1 µM
[20] = molecular target: panel of 391 kinases (Homo sapiens, UniProt O75914); conditions: PAK3, MK-28 1 µM, ATP 1 µM
[21] = molecular target: panel of 391 kinases (Homo sapiens, UniProt P27361); conditions: ERK1, MK-28 1 µM, ATP 1 µM
[22] = molecular target: panel of 391 kinases (Homo sapiens, UniProt Q6VAB6); conditions: KSR2, MK-28 1 µM, ATP 1 µM
[23] = molecular target: panel of 391 kinases (Homo sapiens, UniProt Q13554); conditions: CAMK2b, MK-28 1 µM, ATP 1 µM
[24] = molecular target: panel of 391 kinases (Homo sapiens, UniProt P49841); conditions: GSK3b, MK-28 1 µM, ATP 1 µM
[25] = molecular target: panel of 391 kinases (Homo sapiens, UniProt Q02779); conditions: MLK2/MAP3K10, MK-28 1 µM, ATP 1 µM
[26] = read-out: % Enzyme Activity (relative to DMSO controls)

CN(/N=C\c1ccc(O)c(O)c1)c1nc(-c2ccccc2)cc(-c2ccccc2)n1 [MK-28]
% Enzyme Activity (relative to DMSO controls) [1]: 79.78%
remaining activity at 1 µM [1, 26]: 81.3%
% Enzyme Activity (relative to DMSO controls) [2]: 97.75%
remaining activity at 1 µM [2, 26]: 98.7%
% Enzyme Activity (relative to DMSO controls) [3]: 121.14%
remaining activity at 1 µM [3, 26]: 122%
% Enzyme Activity (relative to DMSO controls) [4]: 98.63%
remaining activity at 1 µM [4, 26]: 99.6%
% Enzyme Activity (relative to DMSO controls) [5]: 95.45%
remaining activity at 1 µM [5, 26]: 97.6%
% Enzyme Activity (relative to DMSO controls) [6]: 101.00%
remaining activity at 1 µM [6, 26]: 105%
% Enzyme Activity (relative to DMSO controls) [7]: 97.30%
remaining activity at 1 µM [7, 26]: 97.6%
% Enzyme Activity (relative to DMSO controls) [8]: 103.40%
remaining activity at 1 µM [8, 26]: 105%
% Enzyme Activity (relative to DMSO controls) [9]: 97.66%
remaining activity at 1 µM [9, 26]: 97.9%
% Enzyme Activity (relative to DMSO controls) [10]: 99.48%
remaining activity at 1 µM [10, 26]: 101%
% Enzyme Activity (relative to DMSO controls) [11]: 96.86%
remaining activity at 1 µM [11, 26]: 100%
% Enzyme Activity (relative to DMSO controls) [12]: 85.92%
remaining activity at 1 µM [12, 26]: 86%
% Enzyme Activity (relative to DMSO controls) [13]: 93.29%
remaining activity at 1 µM [13, 26]: 95.7%
% Enzyme Activity (relative to DMSO controls) [14]: 98.84%
remaining activity at 1 µM [14, 26]: 99%
% Enzyme Activity (relative to DMSO controls) [15]: 94.50%
remaining activity at 1 µM [15, 26]: 95.9%
% Enzyme Activity (relative to DMSO controls) [16]: 94.59%
remaining activity at 1 µM [16, 26]: 95.4%
% Enzyme Activity (relative to DMSO controls) [17]: 96.24%
remaining activity at 1 µM [17, 26]: 99.8%
% Enzyme Activity (relative to DMSO controls) ([18]; kinase AMPK(A2/B1/G1)): 91.41%
remaining activity at 1 µM ([18]; kinase AMPK(A2/B1/G1)): 93%
% Enzyme Activity (relative to DMSO controls) ([18]; kinase AMPK(A2/B2/G1)): 106.33%
remaining activity at 1 µM ([18]; kinase AMPK(A2/B2/G1)): 108%
% Enzyme Activity (relative to DMSO controls) ([18]; kinase AMPK(A2/B2/G2)): 103.36%
remaining activity at 1 µM ([18]; kinase AMPK(A2/B2/G2)): 104%
% Enzyme Activity (relative to DMSO controls) ([18]; kinase AMPK(A2/B2/G3)): 96.60%
remaining activity at 1 µM ([18]; kinase AMPK(A2/B2/G3)): 98.9%
% Enzyme Activity (relative to DMSO controls) [19]: 102.64%
remaining activity at 1 µM [19, 26]: 104%
% Enzyme Activity (relative to DMSO controls) [20]: 116.60%
remaining activity at 1 µM [20, 26]: 117%
% Enzyme Activity (relative to DMSO controls) [21]: 99.70%
remaining activity at 1 µM [21, 26]: 101%
% Enzyme Activity (relative to DMSO controls) [22]: 93.44%
remaining activity at 1 µM [22, 26]: 96%
% Enzyme Activity (relative to DMSO controls) [23]: 93.40%
remaining activity at 1 µM [23, 26]: 98%
% Enzyme Activity (relative to DMSO controls) [24]: 63.98%
remaining activity at 1 µM [24, 26]: 70.3%
% Enzyme Activity (relative to DMSO controls) [25]: 95.47%
remaining activity at 1 µM [25, 26]: 100%

Reference: article PMC7181660, “A novel specific PERK activator reduces toxicity and extends survival in Huntington's disease models” (Scientific Reports, 2020)
